Patent EP0573883A1, “Utilization of 3 substituted aryl-5-alkyl-isoxazole-4-carboxylic acid derivatives against endoparasites new 3-substituted aryl-5-alkyl-isoxazole-4-carboxylic acid derivatives and process for their preparation” (BAYER AG, priority 1992, dated 1993)

How the values were obtained:
[1] = system: Trichostrongylus colubriformis; assay: In vivo nematode test, Trichostrongylus colubriformis / sheep (faecal egg count before and after treatment); conditions: experimentally infected sheep (Schaf), treated after the prepatent period, pure active substance in gelatin capsules, oral, dose giving complete cessation of egg excretion, read-out: Dosis effectiva
Description: Trichostrongylus colubriformis / Schaf
Experimentell mit Trichostrongylus colubriformis infizierte Schafe wurden nach Ablauf der Präpatenzzeit des Parasiten behandelt. Die Wirkstoffe wurden als reiner Wirkstoff in Gelatinekapseln oral appliziert.
(§1) Der Wirkungsgrad wird dadurch bestimmt, daß man die mit dem Kot ausgeschiedenen Wurmeier vor und nach der Behandlung quantitativ auszählt.
(§2) Ein völliges Sistieren der Eiausscheidung nach der Behandlung bedeutet, daß die Würmer abgetrieben wurden oder so geschädigt sind, daß sie keine Eier mehr produzieren (Dosis effectiva).
(§3) Geprüfte Wirkstoffe und wirksame Dosierungen (Dosis effectiva) sind aus der nachfolgenden Tabelle ersichtlich.

Haemonchus contortus = assay: In vivo nematode test, Haemonchus contortus / sheep (faecal egg count before and after treatment); conditions: experimentally infected sheep (Schaf), treated after the prepatent period, pure active substance in gelatin capsules, oral, dose giving complete cessation of egg excretion, read-out: Dosis effectiva
Description: Haemonchus contortus / Schaf
Experimentell mit Haemonchus contortus infizierte Schafe wurden nach Ablauf der Präpatenzzeit des Parasiten behandelt. Die Wirkstoffe wurden als reiner Wirkstoff in Gelatinekapseln oral appliziert.
as §1, §2, §3

CCCCCCCCCCCCCCCCCCNC(=O)c1c(-c2c(Cl)cccc2Cl)noc1CC [Beispiel 1, N-Oktadecyl-3-(2,6-dichlor-phenyl)-5-ethyl-isoxazol-4-carbonsäureamid]
minimal effective dose [1]: 10 mg/kg
minimal effective dose (Haemonchus contortus): 5 mg/kg

Cc1ccc(OC(=O)c2c(-c3c(Cl)cccc3Cl)noc2C)cc1 [Beispiel 59]
minimal effective dose [1]: 5 mg/kg
minimal effective dose (Haemonchus contortus): 10 mg/kg

Cc1onc(-c2c(Cl)cccc2Cl)c1C(=O)Oc1ccc(Cl)cc1 [Beispiel 62]
minimal effective dose [1]: 10 mg/kg
minimal effective dose (Haemonchus contortus): 10 mg/kg

CCCCCCCCCCCCCCCCCCNC(=O)c1c(-c2c(Cl)cccc2Cl)noc1C [Beispiel 83]
minimal effective dose [1]: 10 mg/kg
minimal effective dose (Haemonchus contortus): 10 mg/kg

Cc1onc(-c2c(Cl)cccc2Cl)c1C(=O)Nc1cc(F)cc(F)c1 [Beispiel 103]
minimal effective dose (Haemonchus contortus): 10 mg/kg

Cc1ccccc1NC(=O)c1c(-c2c(Cl)cccc2Cl)noc1C [Beispiel 116]
minimal effective dose [1]: 5 mg/kg
minimal effective dose (Haemonchus contortus): 10 mg/kg

Cc1ccc(NC(=O)c2c(-c3c(Cl)cccc3Cl)noc2C)cc1 [Beispiel 119]
minimal effective dose [1]: 10 mg/kg
minimal effective dose (Haemonchus contortus): 5 mg/kg

CCc1onc(-c2c(Cl)cccc2Cl)c1C(=O)Nc1ccc(SC(F)(F)F)cc1 [Beispiel 127]
minimal effective dose [1]: 5 mg/kg
minimal effective dose (Haemonchus contortus): 10 mg/kg

Cc1ccccc1NC(=O)c1c(-c2c(F)cccc2Cl)noc1C [Beispiel 221]
minimal effective dose (Haemonchus contortus): 5 mg/kg

Cc1onc(-c2c(F)cccc2Cl)c1C(=O)Nc1ccc(Cl)cc1F [Beispiel 230]
minimal effective dose [1]: 5 mg/kg
minimal effective dose (Haemonchus contortus): 10 mg/kg
